# Patent US10738002B2, “Halogenated benzotropolones as ATG4B inhibitors” (Universiteit Antwerpen, priority 2016, dated 2020)
# Like-named read-outs stand apart in the source and are kept apart here.
# How the values were obtained:
# Jurkat T-cells = experiment: CYTO-ID-based phenotypical screening for autophagy inhibition; type: cell-based; conditions: Homo sapiens, tested at 10 mM concentration + 10 μM everolimus, everolimus-treated = 1 (normalized), control 0.37, read-out: CYTOID assay (autophagy relative to the everolimus-treated group)
# Protocol: Final compounds were screened for autophagy/Atg4B inhibition in 3 different assays: a gel-based screening for Atg4B inhibition, a CYTO-ID-based phenotypical screening for autophagy inhibition and a luciferase reporter assay for assessment of intracellular Atg4B inhibition. Initially, all compounds were evaluated using the SDS-PAGE-based screening assay. Each test compound was incubated with [LC3B-GST], a fusion protein of LC3B and glutathione-S-transferase, and Atg4B in Tris-HCl buffer for a fixed time period. Afterwards, residual fusion protein and cleavage products were separated by gel electrophoresis and quantified using optical densitometry. Based on the % of uncleaved substrate, compound activity was expressed as % enzyme inhibition at 500 μM compound concentration. A set of compounds was then subjected to a CYTO ID-based assay (Stankov et al., 2014). This assay is based on selective labelling of autophagic vacuoles in Jurkat T-cells. Quantification of the stained autophagic compartments can then be used for assessment of autophagy modulation. Autophagy induction was obtained by addition of 10 μM everolimus in EtOH in the presence of 10 μM test compound and autophagy inhibition was monitored as a decline in autophagic vacuoles and the corresponding fluorescent signal. […]
# HsAtg4B = biological target: T1, HsAtg4B (Homo sapiens, UniProt Q9Y4P1); experiment: SDS-PAGE-based screening assay for Atg4B inhibition (cleavage of LC3B-GST); type: biochemical; conditions: 500 μM compound concentration; LC3B-GST substrate, 6 minutes; read-out: SDS-PAGE Enzyme inhibition (%)
# T1 sequence (Q9Y4P1 1-393): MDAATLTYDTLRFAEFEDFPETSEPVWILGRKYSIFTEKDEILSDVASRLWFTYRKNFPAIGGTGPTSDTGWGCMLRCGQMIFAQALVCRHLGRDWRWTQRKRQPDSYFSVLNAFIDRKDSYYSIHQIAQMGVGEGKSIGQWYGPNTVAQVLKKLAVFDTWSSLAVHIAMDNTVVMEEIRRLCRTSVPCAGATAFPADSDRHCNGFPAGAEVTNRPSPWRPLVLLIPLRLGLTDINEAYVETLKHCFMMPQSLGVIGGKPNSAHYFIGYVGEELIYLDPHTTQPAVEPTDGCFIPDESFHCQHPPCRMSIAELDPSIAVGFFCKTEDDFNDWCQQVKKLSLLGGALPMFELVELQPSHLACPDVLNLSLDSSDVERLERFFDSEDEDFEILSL
# Protocol: For each assay, fresh aliquots of enzyme and substrate were thawn, and fresh buffer was used. All substrate and enzyme dilutions were made in LoBind Eppendorf® tubes. Buffer used in the following methods for making appropriate dilutions consisted of 50 mM Tris-HCl pH 7.4, 150 mM NaCl, 2 mM DTT and 0.1% TWEEN 20, freshly prepared at the day of the experiment. 10 μL of Laemmli Sample Buffer was added to each sample to stop enzymatic cleavage of LC3B-GST and the samples were boiled for 4 minutes. The samples were loaded onto a NuPAGE® Novex 12 Bis-Tris 1.0 mm 15 well gel after termination of the enzymatic reaction. A Thermo-Scientific® PageRuler Prestained Protein Ladder was used as a reference for molecular weights of the separated proteins. […] Lane densities were quantified using Totallab Quant® software.
# [1] = Plasma stability in mouse plasma; type: in vitro ADME; conditions: for recovery at 1 h, 50 µM: Non Swiss Albino, 37° C., read-out: Plasma stability (mouse) recovery of parent compound after lh (%); for plasma stability compared to the non-halogenated analogues: comparison in words
# Protocol: A 10 mM compound solution was prepared in DMSO (Acros). A 5 μL aliquot was added to 995 μL of mouse plasma (Non Swiss Albino Mouse Plasma, sodium citrate, DivBioScience, IMS-N) to obtain a final solution of 50 μM. The mixture was gently shaken for 6 hours at 37° C. Aliquots of 100 μL were taken at various time points (0, 30, 60, 120, 180, 360 minutes) and diluted with 400 μL of cold methanol (Sigma-Aldrich) (stored at 4° C.). The suspension was centrifuged at 14000 rpm for 5 minutes. Afterwards, 50 μL of the supernatant was diluted with 950 μL of methanol and analyzed with LC-MS/MS (Waters Acquity H-class UPLC system with ion trap mass spectrometer, Bruker Daltonics Esquire 3000 plus, and Agilent 1100 Series LC system). The samples were analyzed in triplicate. A standard curve was plotted using compound concentrations of 3.12-100 μM in mouse plasma.
# [2] = Metabolic stability in mouse microsomes; type: in vitro ADME; conditions: for recovery at 30 min, 10 µM: mouse liver microsomes, read-out: Microsomal stability (mouse) recovery of parent compound after 30 min (%); for microsomal stability, comparison in words: mouse microsomes
# Protocol: A 5 mM compound solution was prepared in DMSO. A mixture of 713 μL milliQ water (Milli-Q Direct 8, Merck Millipore), 200 μL 0.5 M phosphate buffer (BD Diagnostic Systems, 257385), 50 μL NADPH regenerating system solution A (BD Biosciences), 10 μL NADPH regenerating system solution B (BD Biosciences) and 2 μL compound solution was prepared and heated for 5 min at 37° C. 25 μL of liver microsomes (Corning B.V. Life Sciences) was added to the mixture and 20 μL samples were withdrawn at 0, 15, 30, 60, 120, 240 and 360 minutes. 80 μL (4×20 μL) of cold acetonitrile (Sigma-Aldrich) was added to the samples on ice for 10 minutes. Afterwards, the mixtures were centrifuged at 13000 rpm for 5 minutes at 4° C. A volume of 75 μL of an acetonitrile/water (10/90) mixture was added to 25 μL supernatant and the obtained samples were analyzed by LC-MS/MS in triplicate.
# autophagy [3] = conditions: cited from earlier work
# autophagy [4] = experiment: Cellular screening assay for autophagy inhibitors (in our hands); type: cell-based
smiles,measurement,setting,value
"Cn1cnc(N)c2ncnc1-2 [Compound 3-MA, 3-Methyladenine, reference compound]",activity at 10000 µM,Jurkat T-cells,57%
"NC(=O)c1cc(O)c(=O)c2c(O)c(O)c(F)cc2c1 [Compound 31, 2-fluoro-3,4,6-trihydroxy-5-oxo-5H-benzo[7]annulene-8-carboxamide]",inhibition at 500 µM,HsAtg4B,39.9%
"CCCCOC(=O)c1cc(O)c(=O)c2c(O)c(O)c(Br)cc2c1 [Compound 40, Butyl 2-bromo-3,4,6-trihydroxy-5-oxo-5H-benzo[7]annulene-8-carboxylate]","recovery at 1 h, 50 µM",[1],87 ± 4%
same,plasma stability compared to the non-halogenated analogues,[1],substantial increase
same,"recovery at 30 min, 10 µM",[2]; 37° C.,23 ± 7%
same,"microsomal stability, comparison in words",[2],substantial increase
"O=C(O)c1cc(O)c(=O)c2c(O)c(O)c(Br)cc2c1 [Compound 36, 2-bromo-3,4,6-trihydroxy-5-oxo-5H-benzo[7]annulene-8-carboxylic acid]","recovery at 1 h, 50 µM",[1],19 ± 1%
same,plasma stability compared to the non-halogenated analogues,[1],substantial increase
same,"recovery at 30 min, 10 µM",[2]; 37° C.,100%
same,"microsomal stability, comparison in words",[2],substantial increase
O=C(O)c1cc(O)c(=O)c2c(O)c(O)ccc2c1 [Shu et al.],"recovery at 1 h, 50 µM",[1],0%
same,"recovery at 30 min, 10 µM",[2]; value obtained using linear interpolation,100%
same,autophagy inhibition reported by Shu et al.,autophagy [3],weak autophagy inhibitor
same,in cellulo autophagy inhibition (reported),autophagy [3]; in cellulo,no in cellulo autophagy inhibition
same,activity in a cellular screening assay for autophagy inhibitors,autophagy [4],did not show activity
